Assay results taken from patent EP4458353A1, “ANTICARIOGENIC SYNERGETIC COMPOSITION FOR ORAL CARE” (SkyLab AG, priority 2023, dated 2024).
Read-outs that look alike come from different tables or passages of the source.

Assays:
[1] = molecular target: T1, lysozyme (Gallus gallus, UniProt P00698); assay: Lysozyme and naringenin compatibility: lysozyme activity by fall of optical density of Micrococcus lysodeicticus cells; format: biochemical; conditions: added to the buffered medium with lysozyme; 30, 60, 120 minutes at 37 degrees
T1 construct: Lysozyme used in all tests was 99% anhydrous lysozyme hydrochloride isolated from the egg yolks; from tissue; host or cells: eggs ('egg yolks' as printed)
Procedure: Example ? 8. Assessment of lysozyme and naringenin compatibility Potential impact of naringenin on lysozyme activity was assessed through the measurement of lysozyme activity by the method described in the patent RU2294373C2. To determine the lysozyme activity the optical density values obtained for the control wells are subtracted from the optical density values obtained for the wells, which were incubated in the presence of lysozyme. The bacterial cells Micrococcus lysodeicticus in amount corresponding to the optical density 0.6 are mixed with the equal volume of buffer containing lysozyme, naringenin, guava leaf CO2 extract, while no lysozyme is added into the control well. Then the plate is incubated for 30, 60, 120 minutes at 37 degrees, and the optical density is measured. The fall of optical density indicates the lysozyme activity. Then the final density value is subtracted from the initial density value followed by normalization for incubation time and the enzyme concentration in accordance with the procedure described in RU2294373C2.

[2] = system: Streptococcus sobrinus; assay: Minimum biofilm inhibitory concentration (MBIC), crystal violet staining; format: cell-based; conditions: S. sobrinus
Procedure: (§1) Group of examples No 4 - 6. Anti-biofilm activity of the substance or of the composition of substances was assessed from minimum biofilm inhibitory concentration (MBIC) and from the rate of biofilm formation on hydroxyapatite disks.
(§2) Reference strains Streptococcus mutans and S. Sobrinus were used as the bacterial models.
(§3) Example No 4. MBIC as the measure of the substance effect on the bacterial biofilm is equal to minimum concentration inhibiting the biofilm formation or disruption of already formed biofilm during 24 hour incubation.
(§4) MBIC of individual components of the composition, specifically, naringenin, guava leaf CO2 extract, and enzymes lysozyme and labiase can be determined according to the procedure: • 1) All stages of nutritive medium preparation, preparation and incubation of bacterial cultures in 96-well microtiter plates with the test composition of the substances added into nutritive medium were as described in Example 1. • 2) All controls for the culture growth, for purity of nutritive medium and for solvents were as described in Example 1. • 3) Incubate the plates at 37 °C for 24 ± 4 h without the use the orbital shaker. • 4) Stain the bacterial biofilm accumulated on bottom of the plate wells with crystal violet. For this purpose remove the planktonic culture from the plate wells after 24 h incubation and wash with two portions of phosphate-buffered saline (PBS, pH 7.4) to remove remaining planktonic culture. Then dry the plate for 12-15 hours. Add 100 µL of 0.5% crystal violet solution (Sigma-Aldrich, USA), dissolved in 96% ethanol followed by incubation for 20 minutes. After removal of crystal violet solution from the wells wash the plate with 3-4 portions of PBS. After drying add […] of 96% ethanol into the wells to elute the crystal violet, which has bound to the biofilm. • 5) Shake the plate on the orbital shaker for 2 minutes at 37 °C and then measure optical density (OD) at the wavelength of 550nm using multimodal microplate reader against the blank (the well, where the sterile medium LB was incubated and then exposed to all staining manipulations). Since the serial dilution method with 2-fold dilution steps is used for MBIC determination, the difference between the adjacent dilution is considered as non-significant, and MBIC is defined as the median value calculated for 5 independent biological replicates of the experiment. • 6) The following concentrations were tested: naringenin and guava leaf extract at concentrations 1.6, 0.8, 0.4, 0.2, 0.1, 0.05 mg/mL; lysozyme and labiase at concentrations 4.0, 2.0, 1.0, 0.5, 0.25, 0.125 mg/mL. Well-known antibacterial components were used as controls: chlorohexidine bigluconate at concentrations 64, 32, 16, 8, 4 µg/mL; zinc gluconate at concetrations 5.0, 2.5, 1.25, 0.6, 0.3, 0.15 mg/mL.

[3] = system: Streptococcus mutans; assay: as above; format: cell-based; conditions: S. mutans
Procedure: as §1, §2, §3, §4

[4] = system: Streptococcus sobrinus; assay: Minimum inhibitory concentration (MIC), serial two-fold dilution with resazurin test; format: cell-based; conditions: Streptococcus sobrinus, S. sobrinus

T1 sequence (P00698 19-147): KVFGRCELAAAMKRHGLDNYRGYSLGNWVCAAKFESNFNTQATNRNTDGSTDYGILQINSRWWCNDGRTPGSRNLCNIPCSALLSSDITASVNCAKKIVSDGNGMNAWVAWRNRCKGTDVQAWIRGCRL

MIC ([4]; 24 h at 37 °C, read-out: MIC value in individual replicate Replicate 1): > 1600 µg/mL
MIC ([4]; 24 h at 37 °C, read-out: MIC value in individual replicate Replicate 2): > 1600 µg/mL
MIC ([4]; 24 h at 37 °C, read-out: MIC value in individual replicate Replicate 3): > 1600 µg/mL
MIC ([4]; 24 h at 37 °C, read-out: MIC value in individual replicate Replicate 4): > 1600 µg/mL
MIC ([4]; 24 h at 37 °C, read-out: MIC value in individual replicate Replicate 5): > 1600 µg/mL
MIC ([4]; median of 5 replicates, read-out: MIC Median value): > 1600 µg/mL
SMILES: O=C1C[C@@H](c2ccc(O)cc2)Oc2cc(O)cc(O)c21 [Naringenin, naringenin]
effect on lysozyme activity [1]: neither affect lysozyme nor decrease the lysozyme activity
MBIC in indicvdual replicates Replicate 1 ([2]; 24 h incubation): >1.6 mg/mL
MBIC in indicvdual replicates Replicate 2 ([2]; 24 h incubation): >1.6 mg/mL
MBIC in indicvdual replicates Replicate 3 ([2]; 24 h incubation): >1.6 mg/mL
MBIC in indicvdual replicates Replicate 4 ([2]; 24 h incubation): >1.6 mg/mL
MBIC in indicvdual replicates Replicate 5 ([2]; 24 h incubation): >1.6 mg/mL
MBIC Median value ([2]; median of 5 replicates): >1.6 mg/mL
MBIC in indicvdual replicates Replicate 1 ([3]; 24 h incubation): 0.8 mg/mL
MBIC in indicvdual replicates Replicate 2 ([3]; 24 h incubation): 0.8 mg/mL
MBIC in indicvdual replicates Replicate 3 ([3]; 24 h incubation): 0.8 mg/mL
MBIC in indicvdual replicates Replicate 4 ([3]; 24 h incubation): 0.4 mg/mL
MBIC in indicvdual replicates Replicate 5 ([3]; 24 h incubation): 0.8 mg/mL
MBIC Median value ([3]; median of 5 replicates): 0.8 mg/mL
